Values quoted from earlier work in patent US9023853B2, “Janus kinase 2 (JAK2) inhibitor for the treatment of lupus” (Cephalon, Inc., priority 2010, dated 2015).
Like-named read-outs stand apart in the source and are kept apart here.

Conditions: cited from earlier work

Structure (SMILES): CC1CCN(C(=O)CC#N)CC1N(C)c1ncnc2[nH]ccc12 (stereo in doubt) [tasocitinib]
- effectiveness in rheumatoid arthritis (doses of 5-30 mg twice per day): effective

Structure (SMILES): CCS(=O)(=O)N1CC(CC#N)(n2cc(-c3ncnc4[nH]ccc34)cn2)C1 [INCB028050]
- effectiveness in rheumatoid arthritis (doses of 4-10 mg once daily): effective
